Each structure is given as a SMILES string. Counter-ions that a name gives are not always drawn.

The target in the first assay is human muscarinic receptors Hm3 (Homo sapiens (Human), UniProt P20309). As to the kind of experiment: biochemical. The format is binding.
Conditions: not given
On to `O=C(O[C@H]1C[N+]2(CC=Cc3ccccc3)CCC1CC2)C(O)(c1ccccc1)c1ccco1` (mixture of isomers) [Example 17, 3(R)-(2-Furan-2-yl-2-hydroxy-2-phenylacetoxy)-1-(3-phenylallyl)-1-azoniabicyclo[2.2.2]octane; bromide], for which the IC50 (usually the midpoint of a concentration-inhibition curve) stood at 14 nM.

The assay is the same for the next values; noted with them: read-out: BINDING TO RECEPTOR M3 (IC50 nM).
Take `O=C(O[C@H]1C[N+]2(CCCOc3ccccc3)CCC1CC2)C(c1ccccc1)c1ccccc1` [Example 1, 3 (R)-Diphenylacetoxy-1-(3-phenoxypropyl)-1-azoniabicyclo[2.2. 2]octane; bromide]: the half-maximal inhibitory concentration (IC50) was found to be 31 nM.

On to `CC(C(=O)O[C@H]1C[N+]2(CCCOc3ccccc3)CCC1CC2)(c1ccccc1)c1ccccc1` [Example 7, 3(R)-(2,2-Diphenylpropionyloxy)-1-(3-phenoxypropyl)-1-azoniabicyclo[2.2.2]octane; bromide], for which the IC50 came out at 22 nM.

With `O=C(O[C@H]1C[N+]2(CCCOc3ccccc3)CCC1CC2)C(O)(c1ccccc1)c1cccs1` (stereo partly drawn) [Example 8, 3(R)-(2-Hydroxy-2-phenyl-2-thien-2-ylacetoxy)-1-(3-phenoxypropyl)-1-azoniabicyclo[2.2.2]octane; bromide], the IC50 was determined as 4.8 nM.

Turning to `O=C(O[C@H]1C[N+]2(CCOc3ccccc3)CCC1CC2)C(O)(c1ccccc1)c1ccco1` (stereo partly drawn) [Example 18, 3(R)-(2-Furan-2-yl-2-hydroxy-2-phenylacetoxy)-1-(2-phenoxyethyl)-1-azoniabicyclo[2.2.2]octane; bromide], the IC50 was 6.6 nM.

For the compound `O=C(O[C@H]1C[N+]2(CCCOc3ccccc3)CCC1CC2)C(O)(c1ccccc1)c1ccco1` (stereo partly drawn) [Example 20, 3(R)-(2-Furan-2-yl-2-hydroxy-2-phenylacetoxy)-1-(3-phenoxypropyl)-1-azoniabicyclo[2.2.2]octane; bromide], the IC50 came out at 6.8 nM.

On to `O=C(O[C@H]1C[N+]2(CCCOc3ccccc3)CCC1CC2)C(c1cccs1)c1cccs1` [Example 35, 3(R)-(2,2-Dithien-2-ylacetoxy)-1-(3-phenoxypropyl)-1-azoniabicyclo[2.2.2]octane; bromide], for which the IC50 amounted to 13 nM.

For the compound `O=C(O[C@H]1C[N+]2(CCCCc3ccccc3)CCC1CC2)C(O)(c1cccs1)c1cccs1` [Example 39, 3(R)-(2-Hydroxy-2,2-dithien-2-ylacetoxy)-1-(4-phenylbutyl)-1-azoniabicyclo[2.2.2]octane; bromide], the half-inhibitory concentration (IC50) came out at 3.8 nM.

On to `O=C(O[C@H]1C[N+]2(CCCOc3ccc(F)cc3)CCC1CC2)C(O)(c1cccs1)c1cccs1` [Example 53, 1-[3-(4-Fluorophenoxy)propyl]-3(R)-(2-hydroxy-2,2-dithien-2-ylacetoxy)-1-azoniabicyclo[2.2.2]octane; chloride], for which the IC50 was 5.6 nM.

As for `O=C(O[C@H]1C[N+]2(CCCOc3ccccc3O)CCC1CC2)C(O)(c1cccs1)c1cccs1` [Example 71, 3(R)-(2-Hydroxy-2,2-dithien-2-ylacetoxy)-1-[3-(2-hydroxyphenoxy)propyl]-1-azoniabicyclo[2.2.2]octane; trifluoroacetate], the IC50 came to 8.2 nM.

Take `O=C(O[C@H]1C[N+]2(CCCn3cccc3)CCC1CC2)C(O)(c1cccs1)c1cccs1` [Example 74, 3(R)-(2-Hydroxy-2,2-dithien-2-ylacetoxy)-1-(3-pyrrol-1-ylpropyl)-1-azoniabicyclo[2.2.2]octane; trifluoroacetate]: the IC50 amounted to 16 nM.

With `O=C(O[C@H]1C[N+]2(CCCc3cccs3)CCC1CC2)C(O)(c1cccs1)c1cccs1` [Example 78, 3(R)-(2-Hydroxy-2,2-dithien-2-ylacetoxy)-1-(3-thien-2-ylpropyl)-1-azoniabicyclo[2.2.2]octane; bromide], the IC50 turned out to be 5 nM.

Turning to `O=C(O[C@H]1C[N+]2(CCOCc3ccccc3)CCC1CC2)C(O)(c1cccs1)c1cccs1` [Example 84, 1-(2-Benzyloxyethyl)-3(R)-(2-hydroxy-2,2-dithien-2-ylacetoxy)-1-azoniabicyclo[2.2.2]octane; trifluoroacetate], the IC50 turned out to be 9.9 nM.

For `O=C(O[C@H]1C[N+]2(CCCOc3ccccc3)CCC1CC2)C(O)(c1ccsc1)c1ccsc1` [Example 89, 3(R)-(2-Hydroxy-2,2-dithien-3-ylacetoxy)-1-(3-phenoxypropyl)-1-azoniabicyclo[2.2.2]octane; bromide], the IC50 amounted to 5.4 nM.

Turning to `CC1(C(=O)O[C@H]2C[N+]3(CC=Cc4ccccc4)CCC2CC3)c2ccccc2-c2ccccc21` [Example 114, 3(R)-(9-Methyl-9[H]-fluorene-9-carbonyloxy)-1-(3-phenylallyl)-1-azoniabicyclo[2.2.2]octane; bromide], the IC50 turned out to be 14 nM.

For `CC1(C(=O)O[C@H]2C[N+]3(CCCOc4ccccc4)CCC2CC3)c2ccccc2-c2ccccc21` [Example 116, 3(R)-(9-Methyl-9[H]-fluorene-9-carbonyloxy)-1-(3-phenoxypropyl)-1-azoniabicyclo[2.2.2]octane; bromide], the IC50 worked out at 23 nM.

Turning to `O=C(O[C@H]1C[N+]2(CCCc3cccs3)CCC1CC2)C1(O)c2ccccc2Oc2ccccc21` [Example 138, 3(R)-(9-Hydroxy-9H-xanthene-9-carbonyloxy)-1-(3-thien-2-ylpropyl)-1-azoniabicyclo[2.2.2]octane; bromide], the IC50 was found to be 19 nM.

Source of the values: US9333195B2 (priority 1999, dated 2016).
